Measurements as given in ChEMBL document CHEMBL4507289, “Data for DCP probe GSM1” (2021).

Experiments:
[1] = target: Tyrosine-protein kinase CSK (Homo sapiens) (UniProt P41240); settings: Compound concentration 1000.0 nM
[2] = target: 3-phosphoinositide-dependent protein kinase 1 (Homo sapiens) (UniProt O15530); settings: Compound concentration 1000.0 nM
[3] = target: 5-hydroxytryptamine receptor 6 (Homo sapiens) (UniProt P50406); settings: Compound concentration 10.0 uM
[4] = target: Bone morphogenetic protein receptor type-1A (Homo sapiens) (UniProt P36894); settings: Compound concentration 1000.0 nM
[5] = target: Tyrosine-protein kinase TXK (Homo sapiens) (UniProt P42681); settings: Compound concentration 1000.0 nM
[6] = target: LIM domain kinase 2 (Homo sapiens) (UniProt P53671); settings: Compound concentration 1000.0 nM
[7] = target: Insulin-like growth factor 1 receptor (Homo sapiens) (UniProt P08069); settings: Compound concentration 1000.0 nM
[8] = target: Protein kinase C iota type (Homo sapiens) (UniProt P41743); settings: Compound concentration 1000.0 nM
[9] = target: Cyclin-dependent kinase 9 (Homo sapiens) (UniProt P50750); settings: Compound concentration 1000.0 nM
[10] = target: Serine/threonine-protein kinase 35 (Homo sapiens) (UniProt Q8TDR2); settings: Compound concentration 1000.0 nM
[11] = target: 5-hydroxytryptamine receptor 2C (Homo sapiens) (UniProt P28335); settings: Compound concentration 10.0 uM
[12] = target: Tyrosine-protein kinase ITK/TSK (Homo sapiens) (UniProt Q08881); settings: Compound concentration 1000.0 nM
[13] = target: Tyrosine-protein kinase receptor TYRO3 (Homo sapiens) (UniProt Q06418); settings: Compound concentration 1000.0 nM
[14] = target: Mitogen-activated protein kinase 6 (Homo sapiens) (UniProt Q16659); settings: Compound concentration 1000.0 nM
[15] = target: Misshapen-like kinase 1 (Homo sapiens) (UniProt Q8N4C8); settings: Compound concentration 1000.0 nM
[16] = target: Ephrin type-B receptor 3 (Homo sapiens) (UniProt P54753); settings: Compound concentration 1000.0 nM
[17] = system: Epidermal growth factor receptor (Homo sapiens), P00533 [L861Q]; settings: Compound concentration 1000.0 nM
[18] = target: Mitogen-activated protein kinase kinase kinase kinase 4 (Homo sapiens) (UniProt O95819); settings: Compound concentration 1000.0 nM
[19] = target: Mitogen-activated protein kinase kinase kinase 19 (Homo sapiens) (UniProt Q56UN5); settings: Compound concentration 1000.0 nM
[20] = target: Tyrosine-protein kinase Fes/Fps (Homo sapiens) (UniProt P07332); settings: Compound concentration 1000.0 nM
[21] = target: MAP/microtubule affinity-regulating kinase 3 (Homo sapiens) (UniProt P27448); settings: Compound concentration 1000.0 nM
[22] = target: Serine/threonine-protein kinase Nek5 (Homo sapiens) (UniProt Q6P3R8); settings: Compound concentration 1000.0 nM
[23] = target: Cytoplasmic tyrosine-protein kinase BMX (Homo sapiens) (UniProt P51813); settings: Compound concentration 1000.0 nM
[24] = target: Insulin receptor-related protein (Homo sapiens) (UniProt P14616); settings: Compound concentration 1000.0 nM
[25] = target: Tyrosine-protein kinase FRK (Homo sapiens) (UniProt P42685); settings: Compound concentration 1000.0 nM
[26] = target: Protein-tyrosine kinase 6 (Homo sapiens) (UniProt Q13882); settings: Compound concentration 1000.0 nM
[27] = target: Myosin light chain kinase, smooth muscle (Homo sapiens) (UniProt Q15746); settings: Compound concentration 1000.0 nM
[28] = target: Serine/threonine-protein kinase tousled-like 2 (Homo sapiens) (UniProt Q86UE8); settings: Compound concentration 1000.0 nM
[29] = target: Cyclin-dependent kinase 14 (Homo sapiens) (UniProt O94921); settings: Compound concentration 1000.0 nM
[30] = target: Cyclin-dependent kinase 11A (Homo sapiens) (UniProt Q9UQ88); settings: Compound concentration 1000.0 nM
[31] = target: Ephrin type-A receptor 6 (Homo sapiens) (UniProt Q9UF33); settings: Compound concentration 1000.0 nM
[32] = system: Hepatocyte growth factor receptor (Homo sapiens), P08581 [M1250T]; settings: Compound concentration 1000.0 nM
[33] = system: Phosphatidylinositol 4,5-bisphosphate 3-kinase catalytic subunit alpha isoform (Homo sapiens), P42336 [I800L]; settings: Compound concentration 1000.0 nM
[34] = target: Phosphatidylinositol 5-phosphate 4-kinase type-2 gamma (Homo sapiens) (UniProt Q8TBX8); settings: Compound concentration 1000.0 nM
[35] = target: Phosphatidylinositol 4-phosphate 3-kinase C2 domain-containing subunit beta (Homo sapiens) (UniProt O00750); settings: Compound concentration 1000.0 nM
[36] = target: 5-hydroxytryptamine receptor 2B (Homo sapiens) (UniProt P41595); settings: Compound concentration 10.0 uM
[37] = system: Tyrosine-protein kinase ABL1 (Homo sapiens), P00519 [T315I]; settings: Compound concentration 1000.0 nM
[38] = target: Serine/threonine-protein kinase TBK1 (Homo sapiens) (UniProt Q9UHD2); settings: Compound concentration 1000.0 nM
[39] = target: Peripheral plasma membrane protein CASK (Homo sapiens) (UniProt O14936); settings: Compound concentration 1000.0 nM
[40] = target: D(2) dopamine receptor (Homo sapiens) (UniProt P14416); settings: Compound concentration 10.0 uM
[41] = target: Calcium/calmodulin-dependent protein kinase type II subunit beta (Homo sapiens) (UniProt Q13554); settings: Compound concentration 1000.0 nM
[42] = target: RAF proto-oncogene serine/threonine-protein kinase (Homo sapiens) (UniProt P04049); settings: Compound concentration 1000.0 nM
[43] = target: Non-receptor tyrosine-protein kinase TYK2 (Homo sapiens) (UniProt P29597); settings: Compound concentration 1000.0 nM
[44] = target: Testis-specific serine/threonine-protein kinase 1 (Homo sapiens) (UniProt Q9BXA7); settings: Compound concentration 1000.0 nM
[45] = target: Dual specificity protein kinase CLK3 (Homo sapiens) (UniProt P49761); settings: Compound concentration 1000.0 nM

Sequence of Serine/threonine-protein kinase tousled-like 2 (Homo sapiens) (Q86UE8 whole entry, looked up): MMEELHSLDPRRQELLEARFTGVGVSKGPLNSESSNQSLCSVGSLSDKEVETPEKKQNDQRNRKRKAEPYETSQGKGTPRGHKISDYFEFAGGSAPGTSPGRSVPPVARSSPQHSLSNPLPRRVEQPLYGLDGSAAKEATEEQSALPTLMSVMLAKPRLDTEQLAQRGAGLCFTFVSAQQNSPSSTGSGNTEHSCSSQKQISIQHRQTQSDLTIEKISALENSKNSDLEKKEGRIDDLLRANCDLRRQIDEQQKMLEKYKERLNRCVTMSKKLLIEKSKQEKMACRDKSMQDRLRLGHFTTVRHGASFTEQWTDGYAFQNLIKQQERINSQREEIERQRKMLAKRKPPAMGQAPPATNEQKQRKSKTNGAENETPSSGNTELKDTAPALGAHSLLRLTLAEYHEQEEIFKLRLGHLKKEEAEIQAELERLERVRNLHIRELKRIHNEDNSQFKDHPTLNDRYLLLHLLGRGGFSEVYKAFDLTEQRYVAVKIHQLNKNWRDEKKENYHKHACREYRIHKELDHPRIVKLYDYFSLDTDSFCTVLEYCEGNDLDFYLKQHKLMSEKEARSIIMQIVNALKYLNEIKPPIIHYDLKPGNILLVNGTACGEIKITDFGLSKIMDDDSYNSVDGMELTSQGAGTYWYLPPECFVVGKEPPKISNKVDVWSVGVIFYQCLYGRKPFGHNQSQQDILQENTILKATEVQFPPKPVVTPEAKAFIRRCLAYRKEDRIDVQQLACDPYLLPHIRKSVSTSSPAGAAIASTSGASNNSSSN
Sequence of Mitogen-activated protein kinase 6 (Homo sapiens) (Q16659 whole entry): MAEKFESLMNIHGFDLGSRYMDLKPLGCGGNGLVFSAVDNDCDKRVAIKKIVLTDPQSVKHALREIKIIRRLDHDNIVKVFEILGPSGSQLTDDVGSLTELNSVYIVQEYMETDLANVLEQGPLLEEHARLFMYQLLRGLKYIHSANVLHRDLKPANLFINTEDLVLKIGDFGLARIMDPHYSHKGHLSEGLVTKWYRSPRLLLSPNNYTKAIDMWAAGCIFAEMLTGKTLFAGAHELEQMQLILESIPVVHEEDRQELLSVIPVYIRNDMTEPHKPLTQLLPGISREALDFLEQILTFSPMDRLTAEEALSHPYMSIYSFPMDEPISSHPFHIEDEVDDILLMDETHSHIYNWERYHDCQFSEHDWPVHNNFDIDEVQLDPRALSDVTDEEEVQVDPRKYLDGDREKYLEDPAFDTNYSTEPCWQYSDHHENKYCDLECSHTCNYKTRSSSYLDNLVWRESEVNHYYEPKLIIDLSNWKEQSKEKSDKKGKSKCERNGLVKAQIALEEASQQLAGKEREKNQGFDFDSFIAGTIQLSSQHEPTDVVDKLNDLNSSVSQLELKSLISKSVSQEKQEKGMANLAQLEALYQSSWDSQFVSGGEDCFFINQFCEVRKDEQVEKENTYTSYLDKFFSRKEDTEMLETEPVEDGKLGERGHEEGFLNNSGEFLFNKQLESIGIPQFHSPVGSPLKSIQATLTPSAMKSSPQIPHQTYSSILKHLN
Sequence of 5-hydroxytryptamine receptor 6 (Homo sapiens) (P50406 whole entry): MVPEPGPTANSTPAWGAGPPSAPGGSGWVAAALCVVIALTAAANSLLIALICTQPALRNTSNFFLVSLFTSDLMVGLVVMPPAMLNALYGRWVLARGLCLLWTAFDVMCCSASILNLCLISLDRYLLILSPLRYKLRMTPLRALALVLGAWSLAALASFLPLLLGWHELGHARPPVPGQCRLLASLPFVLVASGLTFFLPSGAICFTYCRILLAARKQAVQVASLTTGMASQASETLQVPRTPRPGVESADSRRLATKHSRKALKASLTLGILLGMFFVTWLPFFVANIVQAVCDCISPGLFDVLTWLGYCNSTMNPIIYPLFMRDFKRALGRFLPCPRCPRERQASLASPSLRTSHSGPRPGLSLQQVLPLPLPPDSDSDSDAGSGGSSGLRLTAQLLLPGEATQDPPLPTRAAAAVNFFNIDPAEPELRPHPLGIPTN
Sequence of Misshapen-like kinase 1 (Homo sapiens) (Q8N4C8 whole entry, looked up): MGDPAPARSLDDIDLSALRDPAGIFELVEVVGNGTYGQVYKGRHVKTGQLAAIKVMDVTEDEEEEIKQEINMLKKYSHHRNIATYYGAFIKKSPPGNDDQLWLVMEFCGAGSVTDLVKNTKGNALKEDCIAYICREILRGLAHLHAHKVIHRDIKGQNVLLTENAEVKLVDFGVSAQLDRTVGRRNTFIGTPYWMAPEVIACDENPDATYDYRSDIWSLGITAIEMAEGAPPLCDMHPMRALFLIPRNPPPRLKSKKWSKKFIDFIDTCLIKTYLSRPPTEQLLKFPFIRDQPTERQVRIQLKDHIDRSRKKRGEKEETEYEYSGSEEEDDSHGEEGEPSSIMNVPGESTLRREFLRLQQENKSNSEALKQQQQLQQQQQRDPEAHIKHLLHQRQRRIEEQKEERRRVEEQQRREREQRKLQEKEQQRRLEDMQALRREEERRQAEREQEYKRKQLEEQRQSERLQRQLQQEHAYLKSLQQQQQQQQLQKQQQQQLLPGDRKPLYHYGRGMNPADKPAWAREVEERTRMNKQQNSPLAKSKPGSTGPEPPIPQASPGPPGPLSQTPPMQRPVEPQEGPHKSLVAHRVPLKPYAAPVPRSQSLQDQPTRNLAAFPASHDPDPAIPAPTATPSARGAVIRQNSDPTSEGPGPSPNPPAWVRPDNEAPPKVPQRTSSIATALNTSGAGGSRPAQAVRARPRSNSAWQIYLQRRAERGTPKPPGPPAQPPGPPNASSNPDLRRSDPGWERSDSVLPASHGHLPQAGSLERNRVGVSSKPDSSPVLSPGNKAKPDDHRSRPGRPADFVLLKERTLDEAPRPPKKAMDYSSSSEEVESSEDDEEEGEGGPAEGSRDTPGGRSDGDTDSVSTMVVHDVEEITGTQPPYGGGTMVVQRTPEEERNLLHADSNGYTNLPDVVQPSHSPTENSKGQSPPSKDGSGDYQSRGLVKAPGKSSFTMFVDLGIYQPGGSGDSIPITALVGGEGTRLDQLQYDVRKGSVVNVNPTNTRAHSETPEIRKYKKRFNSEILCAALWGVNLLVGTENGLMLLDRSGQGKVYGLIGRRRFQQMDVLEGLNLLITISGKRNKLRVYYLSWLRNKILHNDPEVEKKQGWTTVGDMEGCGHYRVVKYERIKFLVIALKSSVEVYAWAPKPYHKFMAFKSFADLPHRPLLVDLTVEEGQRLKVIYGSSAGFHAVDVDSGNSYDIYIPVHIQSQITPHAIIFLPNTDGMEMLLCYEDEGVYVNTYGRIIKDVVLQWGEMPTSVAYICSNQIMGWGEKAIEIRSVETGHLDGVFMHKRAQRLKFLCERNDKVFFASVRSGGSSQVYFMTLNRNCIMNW
Sequence of Insulin-like growth factor 1 receptor (Homo sapiens) (P08069 31-736 limits assumed): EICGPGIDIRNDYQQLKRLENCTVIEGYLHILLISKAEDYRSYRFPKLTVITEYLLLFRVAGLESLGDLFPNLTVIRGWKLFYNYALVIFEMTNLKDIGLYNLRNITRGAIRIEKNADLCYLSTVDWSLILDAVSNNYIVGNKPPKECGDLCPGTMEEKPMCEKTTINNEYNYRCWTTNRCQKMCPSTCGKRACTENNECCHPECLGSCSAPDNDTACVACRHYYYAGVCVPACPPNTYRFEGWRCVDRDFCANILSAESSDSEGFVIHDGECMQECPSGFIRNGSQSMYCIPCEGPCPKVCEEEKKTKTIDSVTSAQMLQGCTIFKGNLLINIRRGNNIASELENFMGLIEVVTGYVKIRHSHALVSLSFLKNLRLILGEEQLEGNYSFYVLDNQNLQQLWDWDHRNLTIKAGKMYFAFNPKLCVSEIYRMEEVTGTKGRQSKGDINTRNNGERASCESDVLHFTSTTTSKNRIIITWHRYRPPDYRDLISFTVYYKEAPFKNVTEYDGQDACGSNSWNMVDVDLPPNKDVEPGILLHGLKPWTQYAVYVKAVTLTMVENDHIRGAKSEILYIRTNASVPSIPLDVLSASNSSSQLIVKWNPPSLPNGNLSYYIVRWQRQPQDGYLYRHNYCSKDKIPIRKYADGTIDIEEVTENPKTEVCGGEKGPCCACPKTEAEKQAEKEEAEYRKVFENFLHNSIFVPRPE
Sequence of Insulin-like growth factor 1 receptor (Homo sapiens) (P08069 741-1367 limits assumed): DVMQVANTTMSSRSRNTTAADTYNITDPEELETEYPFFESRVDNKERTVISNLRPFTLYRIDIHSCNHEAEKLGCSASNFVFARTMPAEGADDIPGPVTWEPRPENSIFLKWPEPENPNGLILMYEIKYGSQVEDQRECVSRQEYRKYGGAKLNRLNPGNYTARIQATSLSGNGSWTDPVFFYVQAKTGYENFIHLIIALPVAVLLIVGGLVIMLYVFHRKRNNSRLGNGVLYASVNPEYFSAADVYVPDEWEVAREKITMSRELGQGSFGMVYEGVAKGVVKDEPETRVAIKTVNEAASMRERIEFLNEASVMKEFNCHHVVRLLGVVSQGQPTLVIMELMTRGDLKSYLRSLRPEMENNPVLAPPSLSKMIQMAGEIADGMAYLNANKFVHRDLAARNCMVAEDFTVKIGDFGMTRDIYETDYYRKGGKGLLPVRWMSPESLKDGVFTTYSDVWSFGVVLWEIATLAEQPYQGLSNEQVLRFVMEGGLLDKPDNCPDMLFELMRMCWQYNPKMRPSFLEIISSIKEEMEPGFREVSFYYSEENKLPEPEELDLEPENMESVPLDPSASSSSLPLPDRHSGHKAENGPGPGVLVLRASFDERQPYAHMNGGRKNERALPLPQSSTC
Sequence of 5-hydroxytryptamine receptor 2C (Homo sapiens) (P28335 whole entry): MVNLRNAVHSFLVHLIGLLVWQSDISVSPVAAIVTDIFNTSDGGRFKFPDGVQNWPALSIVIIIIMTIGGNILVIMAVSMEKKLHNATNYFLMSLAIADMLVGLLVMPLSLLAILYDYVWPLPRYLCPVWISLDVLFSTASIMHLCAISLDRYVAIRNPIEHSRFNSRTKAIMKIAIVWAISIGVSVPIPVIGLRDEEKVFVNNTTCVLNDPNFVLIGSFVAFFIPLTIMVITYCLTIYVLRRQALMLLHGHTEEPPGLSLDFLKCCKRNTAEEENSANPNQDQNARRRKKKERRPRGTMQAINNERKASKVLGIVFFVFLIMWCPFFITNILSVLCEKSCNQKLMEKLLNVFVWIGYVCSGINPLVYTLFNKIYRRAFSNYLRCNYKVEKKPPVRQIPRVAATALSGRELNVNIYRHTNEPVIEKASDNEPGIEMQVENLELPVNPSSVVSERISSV

Compound `COc1cc(-c2cn([C@H]3CCc4c(F)cccc4N(CC(F)(F)F)C3=O)nn2)ccc1-n1cnc(C)c1` has a residual activity [1] of 100%, a residual activity [2] of 93% and an inhibition [3] of -4.64%. It also gave a residual activity [4] of 100%, a residual activity [5] of 100% and a residual activity [6] of 100%. For the same compound, the residual activity [7] was 100%, the residual activity [8] was 100% and the residual activity [9] was 97%. The residual activity [10] was 100%, the inhibition [11] was 27.6% and the residual activity [12] was 100%. For the same compound, the residual activity [13] was 100%, the residual activity [14] was 100% and the residual activity [15] was 84%. For the same compound, the residual activity [16] was 100%, the residual activity [17] was 100% and the residual activity [18] was 0%. For the same compound, the residual activity [19] was 100%, the residual activity [20] was 100% and the residual activity [21] was 100%. The residual activity [22] was 90%, the residual activity [23] was 100% and the residual activity [24] was 100%. For the same compound, the residual activity [25] was 100%, the residual activity [26] was 100% and the residual activity [27] was 81%. It also gave a residual activity [28] of 100%, a residual activity [29] of 100% and a residual activity [30] of 100%. It also gave a residual activity [31] of 100%, a residual activity [32] of 100% and a residual activity [33] of 66%. The residual activity [34] was 100%, the residual activity [35] was 100% and the inhibition [36] was 5.58%. The residual activity [37] was 83%, the residual activity [38] was 100% and the residual activity [39] was 71%. It also gave an inhibition [40] of 31.2%, a residual activity [41] of 100% and a residual activity [42] of 100%. It also gave a residual activity [43] of 100%, a residual activity [44] of 100% and a residual activity [45] of 83%.

`COc1cc(-c2cn([C@H]3CCc4ccccc4N(CC(F)(F)F)C3=O)nn2)ccc1-n1ccc(C)n1` gave a residual activity [1] of 100%, a residual activity [2] of 100% and an inhibition [3] of -1.39%. For the same compound, the residual activity [4] was 89%, the residual activity [5] was 84% and the residual activity [6] was 100%. The residual activity [7] was 100%, the residual activity [8] was 100% and the residual activity [9] was 100%. It also gave a residual activity [10] of 100%, an inhibition [11] of 16.9% and a residual activity [12] of 100%. It also gave a residual activity [13] of 100%, a residual activity [14] of 100% and a residual activity [15] of 100%. The residual activity [16] was 100%, the residual activity [17] was 100% and the residual activity [18] was 100%. It also gave a residual activity [19] of 95%, a residual activity [20] of 100% and a residual activity [21] of 100%. It also gave a residual activity [22] of 100%, a residual activity [23] of 100% and a residual activity [24] of 100%. The residual activity [25] was 100%, the residual activity [26] was 100% and the residual activity [27] was 80%. The residual activity [28] was 97%, the residual activity [29] was 100% and the residual activity [30] was 97%. For the same compound, the residual activity [31] was 98%, the residual activity [32] was 100% and the residual activity [33] was 76%. It also gave a residual activity [34] of 100%, a residual activity [35] of 100% and an inhibition [36] of 6.39%. It also gave a residual activity [37] of 70%, a residual activity [38] of 88% and a residual activity [39] of 80%. For the same compound, the inhibition [40] was 7.85%, the residual activity [41] was 97% and the residual activity [42] was 98%. It also gave a residual activity [43] of 100%, a residual activity [44] of 83% and a residual activity [45] of 95%.
